# Source: a melting point compilation (Tetko et al.; mined from patent text by program, amines drawn as free bases though some values may be those of a salt)
row,SMILES,melting point
1,COc1ccc(N2CCN(c3c(C)c(C)c4c(c3C)C(O)(C(C)(C)C)C(C)(C)O4)CC2)cc1 (configuration not stated),113 to 115 °C
2,O=C(Cc1ccccc1)OC1c2ccccc2C(=O)N1c1ccc2ccc(Cl)nc2n1 (configuration not stated),222 to 224 °C
3,CCN1C(=O)CCCc2c1ccc(Nc1ncc(Cl)c(Nc3ccccc3S(=O)(=O)N(C)C)n1)c2OC,183 °C
4,COc1cc2c(cc1OC)CC(N)CC2 (configuration not stated),83 to 86 °C
5,CCCCCCNC(=O)OCCCCCCNC(=O)OC1CCN(C(=O)Oc2ccc(C3CCCCC3)cc2)CC1,94 to 96 °C
6,CN1CC=C(C2=C(C#N)C(c3cccc(C#N)c3Br)c3c[nH]nc3N2)CC1 (configuration not stated),233 °C
7,O=c1[nH]c(Nc2ccccc2)nc2c1ncn2CCO,338 to 339 °C
8,COCC1CNc2nc(N)[nH]c(=O)c2N1 (racemic),> 250 °C
9,CCCC1(CC)Cc2cc(OCC(=O)O)c(Cl)c(Cl)c2C1=O (configuration not stated),126 °C
10,CN1C(=O)CC(c2ccccc2)C1C(O)c1ccc(Br)s1 (configuration not stated),105 °C
11,Cc1cc(-n2cncn2)c2cccc(OCc3c(Cl)ccc(S(=O)(=O)N4CCC[C@H]4C(=O)NCC4CCN(CC(=O)OC(C)(C)C)CC4)c3Cl)c2n1,50 °C
12,CCCCN(Sc1nc2ccccc2s1)C(C)(C)C,55 to 56 °C
13,COc1ccc(CNc2nc(-c3ccco3)c3ncn(Cc4ccc(OC)cc4)c3n2)cc1,153 to 154 °C
14,NC(=O)CC1(c2ccccc2)C(=O)Nc2ccc(Cl)cc21 (configuration not stated),247 to 248 °C
15,CCn1ccc(=O)c2cnc(-c3cccnc3)nc21,195 to 196 °C
16,O=S(=O)(c1ccccc1)n1ccc2ccc3c4cc(Br)ccc4[nH]c3c21,173 to 175 °C
17,O=C(O)COc1ccc(-c2c3ccc(OCC(=O)O)cc3cc3sc4ccccc4c23)cc1,245 to 246 °C
18,CC1(C)OC(c2ccc(S(N)(=O)=O)c(Cl)c2)=C(c2ccccc2)C1=O,193 to 194 °C
19,Cc1c(-c2ccc(N)cc2)[nH]c2nccnc12,330 to 332 °C
20,CC(C)(N)c1ccc(-c2nc(Nc3ccc(CCN4CCCCC4)cc3)ncc2C#N)cc1,114 °C
21,CC1(C)OC(C=Cc2cccs2)=CC1=O,75 to 77 °C
22,Cn1ccnc1Sc1c(Cl)cccc1[N+](=O)[O-],102 to 104 °C

row,SMILES,melting point
1,O=[N+]([O-])c1ccc(C2CCN(c3ccncc3)CC2)cc1,173 to 174 °C
2,CS(C)=Nc1nc(OCc2ccccc2)ncc1F,125 to 129 °C
3,CC1(C)CC(=O)c2c(-c3ccccn3)cn(-c3ccccn3)c2C1,171 to 174 °C
4,CON=C1CCc2c(cccc2OCC(O)CN2CCN(C(c3ccccc3)c3ccccc3)CC2)C1 (configuration not stated),> 183 °C
5,C[C@@H](c1ccc(-c2c[nH]nn2)cc1)[C@](O)(Cn1cncn1)c1ccc(F)cc1F,121 °C
6,CC(C)(C)c1cc(C(=NN)c2ccccc2)cc(C(C)(C)C)c1O,97.4 to 117 °C
7,CC(C)(C)c1ccc(-c2nnc(N)nc2N)cc1,275 to 276 °C
8,CCCc1nn(-c2ccc(C(F)(F)F)cn2)cc1C=O,52 to 53 °C
9,O=C1Nc2cc(NC(=O)c3cccn(-c4ccccc4)c3=O)ccc2/C1=C/c1ccc[nH]1,> 300 °C
10,Cc1ccc(C2=C(c3ccc(S(C)(=O)=O)cc3)C(=O)N(C)C2)cc1,183 to 185 °C
11,"CCCCCCCCOc1ccc(-c2ccc(C(C)OC(=O)CCC)cc2)cc1 (single isomer, unassigned; (+))",56.9 °C
12,CCc1cn([C@@H]2CO[C@H](CO)O2)c(=O)[nH]c1=O,132 to 133 °C
13,Cn1nc(C(F)(F)F)c(CS(=O)(=O)C2=NOC(C)(C)C2)c1Oc1ccccc1Cl,67 to 70 °C
14,CC1(C)Oc2ccc([N+](=O)[O-])cc2C(n2ccccc2=O)=C1CBr,221 °C
15,COC(=O)C[C@@H](CC(=O)/C=C/c1c(-c2ccc(F)cc2)c(-c2ccc(F)cc2)c(C(=O)Nc2cccc(C(=O)N(C)C)c2)n1C(C)C)O[Si](C)(C)C(C)(C)C,135 to 137 °C
16,CCOC(=O)C1=C(C)NC(C)=C(C#N)C1c1cccc2c1SC(c1ccccc1)=CC2 (configuration not stated),206 to 207 °C
17,O=C1NC(N2CCCCC2)=N/C1=C\c1c[nH]c2ncc(Cl)cc12,315 to 320 °C
18,O=c1c2c(c3ccccc3n1-c1ccccc1)OCC2,195 to 197 °C
19,Cc1ccc(S(=O)(=O)N2CCCC2c2ccccc2)cc1 (racemic),109 °C
20,C[C@H](N=Cc1ccc(OCc2ccccc2F)cc1)C(N)=O,121 °C
21,CC(=O)c1ccc(N2Cc3ccccc3C2=O)cc1,235 to 237 °C
22,c1ccc2cc3sccc3cc2c1,193 to 194 °C

row,SMILES,melting point
1,CCN(C(=O)c1ccccc1C(=O)c1ccccc1)C1CCCCC1NS(=O)(=O)c1ccc(C)cc1 (configuration not stated),202 to 204 °C
2,O=C(O)CCc1ccccc1OCCC(c1ccccc1)(c1ccccc1)c1ccccc1,118 to 120 °C
3,O=C1N(Cc2ccc(Cl)cc2)c2ccc(Br)cc2C1(O)c1ccc2c(c1)OCO2 (configuration not stated),179 to 180 °C
4,OC1Cc2cc(F)cc(F)c2C1 (configuration not stated),52 to 56 °C
5,O=C(NCCC(Nc1ccccc1)c1ccccc1)c1ccccc1 (configuration not stated),120 to 121 °C
6,CCOCc1nc2c(N)nc3cc(N4CCOC4=O)ccc3c2n1CC(C)(C)O,> 250 °C
7,Cc1cc2c(N=C3SCC4Cc5sccc5CN34)cccc2cn1 (racemic),159 °C
8,NC(=O)C(CCC(=O)OCc1ccccc1)N1Cc2c(OCc3ccc(CN4CCOCC4)cc3)cccc2C1=O (configuration not stated),141 to 143 °C
9,Cc1oc(-c2ccccc2)nc1COc1ccc(Cn2cc(CCC(=O)O)c(C(C)C)n2)cc1,97 to 98 °C
10,CCOC(=O)/C=C1\C[C@@H]2c3cccc4[nH]cc(c34)C[C@H]2N(C)C1,170 to 171 °C
11,CCCS(=O)c1nc(OS(C)(=O)=O)c(Cl)cc1Cl (configuration not stated),92 to 94 °C
12,Cc1nc2c(N)nc3ccccc3c2n1CCOCc1ccccc1,159 to 160 °C
13,Nc1ncc(-c2cccc(F)c2)nc1C(=O)Nc1cccnc1,234 to 238 °C
14,COC(=O)CCNCC1CC2c3cc(C(C)(C)C)cc4[nH]cc(c34)CC2N(C)C1 (configuration not stated),153 to 157 °C
15,O=C(Nc1ccc(-n2nc(C(F)(F)F)cc2C(F)(F)F)cc1)c1ccc(F)c(C(F)(F)F)c1,142 to 144 °C
16,COc1cc(-c2ccccc2C)ccc1C(=O)N1Cc2ccc(C(=O)N(C)CC(O)C(O)C(O)C(O)CO)n2Cc2ccccc21 (configuration not stated),144 to 146 °C
17,O=C(c1ccc(-c2ccc(Cl)cc2)cc1)N1CCCc2cc(C=CCN3CCCCC3)ccc21,141 to 143 °C
18,FC(F)=C(F)CCSc1nc(-c2ccc(Cl)cc2)no1,49 to 52 °C
19,O=C(NCCc1ccc(O)cc1)c1ccc2n1Cc1ccccc1N(C(=O)CSc1ccc(Br)cc1)C2,168 to 169 °C
20,O=c1[nH]c2cccc(Cl)c2c2cc(CO)nn12,295 to 296 °C
21,O=C(O)CC(Cc1ccccc1)N1C(=O)c2ccccc2C1=O (configuration not stated),123 to 124 °C
22,CCCc1ccc(Oc2c(-c3ccc(S(C)(=O)=O)cc3)cnn(CC(F)(F)F)c2=O)cc1,152 to 153 °C

# Continued, values first:
row,melting point,SMILES
1,33 to 35 °C,Oc1ccc(O)c(F)c1
2,136 to 138 °C,COc1ccc(C(=O)Nc2cc(NC(=O)c3cccc(Br)c3)ccc2C)cc1OC
3,105 to 107 °C,NC(=O)N(O)CC#CCOc1cccc(Oc2ccccc2)c1
4,180 to 182 °C,CCOC(=O)COc1ccc(C(=O)Nc2cccc(Cl)c2Sc2ccccc2-c2nnn[nH]2)cc1
5,152 to 154 °C,COc1ncccc1NC(=O)[C@H]1[C@H](c2ccccc2)C1(C)C (relative stereo)
6,135 to 137 °C,COC(=O)c1c(OCc2ccccc2)ccc2c1CCCC2=NO
7,146 to 149 °C,O=C(Nc1ccc(C(=O)O)cc1)OCCCCC1c2ccccc2-c2ccccc21
8,175 to 176 °C,CCOC(=O)c1c(C)nsc1NC(=O)NC(C)C
9,148 °C,COc1ccc2c3ccc(OC)cc3n(-c3ccccc3OC)c2c1
10,233 °C,Cc1cnc(NC(=O)C2=C(O)c3ccc(F)cc3S(=O)(=O)N2C)s1
11,87 to 88 °C,COc1ccc(C2=NN(Cc3ccccc3C(F)(F)F)C(=O)[C@H]3CCCC[C@@H]23)cc1OC (relative stereo)
12,135 °C,CC(C)(C)c1cccc(S(=O)(=O)Nc2ncc(C(F)(F)F)cc2I)c1
13,183 to 185 °C,CCOC(=O)Cc1c(C(=O)O)c(Br)c(C(=O)c2ccc(Cl)cc2)n1C
14,149 °C,CS(=O)(=O)c1ccccc1C(N)=O
15,171 to 173 °C,COC(=O)c1nc(-c2ccc(Cl)c(OC)c2F)nc(N)c1/C=C/Br
16,154 to 156 °C,CCOC(=O)C(=O)CSc1ccc(-c2ccccc2)cc1

row,melting point,SMILES
1,138 to 139 °C,CCCCC1OC(=O)c2cc(NC(C)=O)ccc21 (configuration not stated)
2,140 to 144 °C,CCC(C)(C)c1ccc(OCC(=O)O)c(C(C)(C)C)c1
3,183 to 185 °C,COc1cc2c(cc1OC)CC(C(=O)N1CCN(C(=O)c3cc(OC)c(OC)c(OC)c3)CC1)=C2
4,86 to 89 °C,CCOC(=O)[C@H](Cc1ccc(-c2c(OC)cc(CN3CCSCC3)cc2OC)cc1)NC(=O)c1c(Cl)cccc1Cl
5,119 °C,O=C(Cc1ccc(Cl)cc1Cl)c1ccc(Cl)cc1
6,193 to 195 °C,COc1nc(=O)n(-c2ccc(Cl)cc2C)c(=O)[nH]1
7,168 to 170 °C,COC(=O)NC(=O)Nc1ccc(OC)c(OC)c1
8,140 to 142 °C,CNc1cc(F)ccc1C(=O)CS(=O)(=O)NC
9,146 to 147 °C,CC(=O)C(=NNc1ccccc1)C(N)=O
10,220 to 221 °C,CCCNC(=O)NNC=NC(=O)c1nc(Cl)c(N)nc1N
11,155 °C,CC(C)(Oc1cccc2ccccc12)C(=O)Nc1ccc(C(=O)O)cc1
12,205 °C,NC(=O)c1nsc(N)c1C(N)=O
13,170 °C,Cc1cccc(NC(=O)NC(C(=O)O)C(C)C)c1 (racemic)
14,70 to 72 °C,C=CC1C(=O)N(c2ccc(OC)cc2)C1C(=O)OCC (configuration not stated)
15,279 to 280 °C,COc1ccc(S(=O)(=O)Nc2nc(-c3ccccc3)nn2C)cc1OC
